Measured values: patent US9573956B2, “Compounds as dual inhibitors of phosphodiesterases and histone deacetylases” (FUNDACIÓN PARA LA INVESTIGACIÓN MÉDICA APLICADA, priority 2013, dated 2017)

Key:
Assay type in all cases: biochemical
HDAC1 = HDAC1 (Homo sapiens, UniProt Q13547); experiment: HDAC enzyme activity assay (fluorogenic substrate), HDAC1; details: recombinant enzyme; read-out: HDAC1 inhibition (IC50)
PDE9A isoform b = target: T1, PDE9A isoform b (Homo sapiens, UniProt O76083); experiment: PDE enzyme activity assay (HTRF cGMP), PDE9A; details: recombinant enzyme; read-out: PDE9A inhibition (IC50)
T1 construct: they are full-length with N-terminal GST tag; GST (N); purchased BPS Biosciences 60090; host or cells: baculovirus infected Sf9 cells
T1 sequence (O76083 1-533 isoform O76083-2): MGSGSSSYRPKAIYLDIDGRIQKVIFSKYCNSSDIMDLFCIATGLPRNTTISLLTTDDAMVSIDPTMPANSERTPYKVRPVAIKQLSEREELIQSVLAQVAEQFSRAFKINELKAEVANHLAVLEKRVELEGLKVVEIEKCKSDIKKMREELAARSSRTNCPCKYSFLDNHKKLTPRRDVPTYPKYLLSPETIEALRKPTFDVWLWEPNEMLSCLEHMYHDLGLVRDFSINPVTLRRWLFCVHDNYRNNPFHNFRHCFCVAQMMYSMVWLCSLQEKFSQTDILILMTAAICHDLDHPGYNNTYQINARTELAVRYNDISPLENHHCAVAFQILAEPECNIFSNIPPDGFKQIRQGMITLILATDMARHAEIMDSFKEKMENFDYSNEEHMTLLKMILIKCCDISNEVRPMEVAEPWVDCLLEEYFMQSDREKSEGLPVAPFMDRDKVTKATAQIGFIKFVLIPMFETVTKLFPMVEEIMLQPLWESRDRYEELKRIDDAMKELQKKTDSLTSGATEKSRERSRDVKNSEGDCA

PDE5A = target: T2, PDE5A (Homo sapiens, UniProt O76074); experiment: PDE enzyme activity assay (HTRF cGMP), PDE5A; details: recombinant enzyme; read-out: PDE5A1 inhibition (IC50)
T2 construct: they are full-length with N-terminal GST tag; GST (N); purchased BPS Biosciences 60050; host or cells: baculovirus infected Sf9 cells

HDAC6 = target: T3, HDAC6 (Homo sapiens, UniProt Q9UBN7); experiment: HDAC enzyme activity assay (fluorogenic substrate), HDAC6; details: recombinant enzyme; read-out: HDAC6 inhibition (IC50)
T3 construct: BC069243; Cat. #50006) is full-length with N-terminal GST tag; GST (N); purchased BPS Biosciences 50006; host or cells: baculovirus infected Sf9 cells
T3 sequence (Q9UBN7 1-1215): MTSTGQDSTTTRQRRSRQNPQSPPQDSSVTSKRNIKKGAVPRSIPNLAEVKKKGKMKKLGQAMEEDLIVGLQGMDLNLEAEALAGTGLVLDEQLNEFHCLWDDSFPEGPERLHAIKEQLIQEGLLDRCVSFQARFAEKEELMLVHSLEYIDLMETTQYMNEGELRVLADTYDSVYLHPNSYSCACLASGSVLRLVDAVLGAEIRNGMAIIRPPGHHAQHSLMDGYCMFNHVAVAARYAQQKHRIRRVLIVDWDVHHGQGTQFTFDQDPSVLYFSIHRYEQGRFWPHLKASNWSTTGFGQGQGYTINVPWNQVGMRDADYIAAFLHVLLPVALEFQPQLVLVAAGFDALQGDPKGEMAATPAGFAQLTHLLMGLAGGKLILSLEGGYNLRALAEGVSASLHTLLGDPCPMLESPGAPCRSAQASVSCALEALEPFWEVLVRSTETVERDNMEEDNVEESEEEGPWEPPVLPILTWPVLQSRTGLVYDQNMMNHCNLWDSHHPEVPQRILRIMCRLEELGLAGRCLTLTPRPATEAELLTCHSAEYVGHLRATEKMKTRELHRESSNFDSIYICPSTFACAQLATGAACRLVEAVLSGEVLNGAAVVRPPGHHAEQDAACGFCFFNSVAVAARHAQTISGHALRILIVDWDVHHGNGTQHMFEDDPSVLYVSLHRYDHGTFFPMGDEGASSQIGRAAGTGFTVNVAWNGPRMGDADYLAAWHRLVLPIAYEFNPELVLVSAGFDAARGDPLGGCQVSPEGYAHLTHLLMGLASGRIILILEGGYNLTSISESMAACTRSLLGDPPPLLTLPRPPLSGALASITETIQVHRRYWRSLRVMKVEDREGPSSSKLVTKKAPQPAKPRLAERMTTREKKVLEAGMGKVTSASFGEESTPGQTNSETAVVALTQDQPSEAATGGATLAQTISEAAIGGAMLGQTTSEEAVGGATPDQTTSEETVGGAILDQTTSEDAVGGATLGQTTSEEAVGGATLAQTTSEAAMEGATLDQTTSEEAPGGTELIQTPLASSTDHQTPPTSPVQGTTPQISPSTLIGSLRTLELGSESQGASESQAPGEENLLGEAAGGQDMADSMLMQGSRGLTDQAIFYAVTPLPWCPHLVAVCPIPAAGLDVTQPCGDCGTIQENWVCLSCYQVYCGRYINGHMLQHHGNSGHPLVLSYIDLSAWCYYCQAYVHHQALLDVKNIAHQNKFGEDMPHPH

HDAC2 = target: T4, HDAC2 (Homo sapiens, UniProt Q92769); experiment: HDAC enzyme activity assay (fluorogenic substrate), HDAC2; details: recombinant enzyme; read-out: HDAC2 inhibition (IC50)
T4 construct: NM_001527; Cat. #50002) is full-length with C-terminal his tag; His (C); purchased BPS Biosciences 50002; host or cells: baculovirus infected Sf9 cells
T4 sequence (Q92769 whole entry): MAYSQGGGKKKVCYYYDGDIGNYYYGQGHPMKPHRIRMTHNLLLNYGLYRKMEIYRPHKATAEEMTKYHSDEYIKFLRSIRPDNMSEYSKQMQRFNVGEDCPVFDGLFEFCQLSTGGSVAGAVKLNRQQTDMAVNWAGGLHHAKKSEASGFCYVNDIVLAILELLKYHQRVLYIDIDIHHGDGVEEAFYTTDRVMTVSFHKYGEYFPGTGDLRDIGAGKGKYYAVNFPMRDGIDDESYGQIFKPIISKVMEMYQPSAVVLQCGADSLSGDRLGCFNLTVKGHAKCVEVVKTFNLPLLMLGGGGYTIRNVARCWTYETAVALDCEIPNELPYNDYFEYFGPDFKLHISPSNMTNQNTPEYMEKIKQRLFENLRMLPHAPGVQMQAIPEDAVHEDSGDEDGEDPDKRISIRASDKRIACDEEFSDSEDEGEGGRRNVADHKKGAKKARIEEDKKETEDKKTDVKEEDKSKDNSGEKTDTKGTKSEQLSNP

Sequence of HDAC1 (Q13547 whole entry, canonical isoform): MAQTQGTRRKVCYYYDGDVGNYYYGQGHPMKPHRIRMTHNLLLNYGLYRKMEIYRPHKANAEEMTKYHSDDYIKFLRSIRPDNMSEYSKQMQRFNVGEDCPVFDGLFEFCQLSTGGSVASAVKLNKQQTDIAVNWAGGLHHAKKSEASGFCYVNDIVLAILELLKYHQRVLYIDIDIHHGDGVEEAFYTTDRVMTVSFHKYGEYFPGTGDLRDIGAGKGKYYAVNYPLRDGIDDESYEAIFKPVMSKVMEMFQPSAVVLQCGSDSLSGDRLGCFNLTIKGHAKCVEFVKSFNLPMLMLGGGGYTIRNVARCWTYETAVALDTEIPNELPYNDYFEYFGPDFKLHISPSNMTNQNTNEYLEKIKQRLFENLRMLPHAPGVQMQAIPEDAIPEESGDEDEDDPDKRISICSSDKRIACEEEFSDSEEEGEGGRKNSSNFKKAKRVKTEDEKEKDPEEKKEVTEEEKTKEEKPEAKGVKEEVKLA

| SMILES | IC50 (HDAC1) [µM] | IC50 (PDE9A isoform b) [µM] | IC50 (PDE5A) [µM] | IC50 (HDAC6) [µM] | IC50 (HDAC2) [µM] |
| --- | --- | --- | --- | --- | --- |
| CC1CN(CC2CCN(c3ncc(C(=O)NO)cn3)CC2)CC1c1nc2c(cnn2C2CCOCC2)c(=O)[nH]1 (racemic) [Example 3-02, 2-(4-((3-(4,5-Dihydro-1-(tetrahydro-2H-pyran-4-yl)-4-oxo-1H-pyrazolo[3,4-d]pyrimidin-6-yl)-4-methylpyrrolidin-1-yl)methyl)piperidin-1-yl)-N-hydroxypyrimidine-5-carboxamide] | 0.01 to 1 | 0.01 to 1 | 1 to 10 |  |  |
| C[C@@H]1CN(Cc2ncc(-c3ccc(C(=O)NO)cc3)cn2)C[C@H]1c1nc2c(cnn2C2CCOCC2)c(=O)[nH]1 (racemic) [Example 3-04] | 0.01 to 1 | < 0.01 |  |  |  |
| C[C@@H]1CN(Cc2cnc(N3CCC(C(=O)NO)CC3)nc2)C[C@H]1c1nc2c(cnn2C2CCOCC2)c(=O)[nH]1 (racemic) [Example 3-08] | 1 to 10 | 0.01 to 1 |  |  |  |
| C[C@H]1CN(Cc2ccc(C(=O)NO)cc2)C[C@@H]1c1nc2c(cnn2C2CCOCC2)c(=O)[nH]1 (racemic) [Example 3-09, 4-[[(3R,4R)-3-methyl-4-(4-oxo-1-tetrahydropyran-4-yl-5H-pyrazolo[3,4-d]pyrimidin-6-yl)pyrrolidin-1-yl]methyl]benzenecarbohydroxamic acid] |  | 0.01 to 1 |  | 0.01 to 1 |  |
| C[C@@H]1CN(Cc2ccc(C(=O)NO)s2)C[C@H]1c1nc2c(cnn2C2CCOCC2)c(=O)[nH]1 (racemic) [Example 3-10] |  | 0.01 to 1 |  | 0.01 to 1 |  |
| C[C@@H]1CN(Cc2ccc(C(=O)NO)cc2)C[C@H]1c1nc2c(cnn2C2CCCC2)c(=O)[nH]1 (racemic) [Example 3-11] |  | 0.01 to 1 |  | 0.01 to 1 |  |
| CC1CN(CC2CC(C(=O)NO)C2)CC1c1nc2c(cnn2C2CCOCC2)c(=O)[nH]1 (racemic) [Example 3-12] | 1 to 10 | 0.01 to 1 |  | 1 to 10 | > 10 |
| CC1CN(Cc2ccc(C(=O)NO)s2)CC1c1nc2c(cnn2C2CCCC2)c(=O)[nH]1 (racemic) [Example 3-17] | 0.01 to 1 | < 0.01 |  | 0.01 to 1 | 1 to 10 |
| CCCc1nn(C)c2c(=O)[nH]c(-c3cc(S(=O)(=O)Nc4ccc(/C=C/C(=O)NO)cc4)ccc3OCC)nc12 [Example 1-03] | 0.01 to 1 | 1 to 10 | < 0.01 |  | 0.01 to 1 |
| CCCc1nn(C)c2c(=O)[nH]c(-c3cc(Cc4ccc(C(=O)NO)c(F)c4)ccc3OCC)nc12 [Example 1-66] | 1 to 10 |  | 0.01 to 1 | 0.01 to 1 | > 10 |
| CCCc1nn(C)c2c(=O)[nH]c(-c3cc(N4CCC5(CC5C(=O)NO)C4)ccc3OCC)nc12 (centres unmarked) [Example 1-67] | > 10 |  | 0.01 to 1 | > 10 | > 10 |
| CCCc1nn(C)c2c(=O)[nH]c(-c3cc(Cc4ccc(C(=O)NO)cc4F)ccc3OCC)nc12 [Example 1-68] | 1 to 10 |  | 0.01 to 1 | 0.01 to 1 | > 10 |
| CCCc1nn(C)c2c(=O)[nH]c(-c3cc(N4CCC5(CCN(c6ncc(C(=O)NO)cn6)CC5)C4)ccc3OCC)nc12 [Example 1-69, 2-[2-[4-ethoxy-3-(1-methyl-7-oxo-3-propyl-6H-pyrazolo[4,3-d]pyrimidin-5-yl)phenyl]-2,8-diazaspiro[4.5]decan-8-yl]pyrimidine-5-carbohydroxamic acid] | 0.01 to 1 |  | 0.01 to 1 | 1 to 10 | 1 to 10 |
| CCCc1nn(C)c2c(=O)[nH]c(-c3cc(N4CCC5(CCCN(c6ncc(C(=O)NO)cn6)C5)C4)ccc3OCC)nc12 (centres unmarked) [Example 1-70] | 0.01 to 1 |  | 0.01 to 1 | 1 to 10 | 1 to 10 |
| CCCc1nn(C)c2c(=O)[nH]c(-c3cc(C4CC(C(=O)NO)C4)ccc3OCC)nc12 (centres unmarked) [Example 1-84, 3-[4-ethoxy-3-(1-methyl-7-oxo-3-propyl-6H-pyrazolo[4,3-d]pyrimidin-5-yl)phenyl]cyclobutanecarbohydroxamic acid] | 0.01 to 1 |  | 0.01 to 1 | 0.01 to 1 | 1 to 10 |
| CCCc1nn(C)c2c(=O)[nH]c(-c3cc(C4CC(C(=O)NO)C4)ccc3OCC)nc12 (centres unmarked) [Example 1-85, 3-[4-ethoxy-3-(1-methyl-7-oxo-3-propyl-6H-pyrazolo[4,3-d]pyrimidin-5-yl)phenyl]cyclobutanecarbohydroxamic acid] | 1 to 10 |  | 0.01 to 1 | 0.01 to 1 | 1 to 10 |
| CCCc1nn(C)c2c(=O)[nH]c(-c3cc(CC4CC4C(=O)NO)ccc3OCC)nc12 (centres unmarked) [Example 1-86, 2-[[4-ethoxy-3-(1-methyl-7-oxo-3-propyl-6H-pyrazolo[4,3-d]pyrimidin-5-yl)phenyl]methyl]cyclopropanecarbohydroxamic acid] | 1 to 10 |  | 0.01 to 1 | 1 to 10 | > 10 |
| CCCc1nc(C)c2c(=O)[nH]c(-c3cc(S(=O)(=O)N4CCN(CCCC(=O)NO)CC4)ccc3OCC)nn12 [Example 2-02, 4-[4-[4-ethoxy-3-(5-methyl-4-oxo-7-propyl-3H-imidazo[5,1-f][1,2,4]triazin-2-yl)phenyl]sulfonylpiperazin-1-yl]butanehydroxamic acid] | 0.01 to 1 | 0.01 to 1 | < 0.01 |  |  |
| CCCc1nc(C)c2c(=O)[nH]c(-c3cc(S(=O)(=O)Nc4ccc(/C=C/C(=O)NO)cc4)ccc3OCC)nn12 [Example 2-03] | 0.01 to 1 | 1 to 10 | < 0.01 |  |  |
| CCCc1nc(C)c2c(=O)[nH]c(-c3cc(S(=O)(=O)N4CCN(c5ncc(C(=O)NO)cn5)CC4)ccc3OCC)nn12 [Example 2-05] | < 0.01 | > 10 | < 0.01 |  |  |
| CCCc1nc(C)c2c(=O)[nH]c(-c3cc(Cc4ccc(/C=C/C(=O)NO)cc4)ccc3OCC)nn12 [Example 2-08] | 1 to 10 |  | < 0.01 | 0.01 to 1 | 1 to 10 |
| CC(c1nc2c(cnn2C2CCOCC2)c(=O)[nH]1)N1CC(Oc2ccc(-c3ccc(C(=O)NO)cc3)cc2)C1 (centres unmarked) [Example 3-03, 4-[4-[1-[1-(4-Oxo-1-tetrahydropyran-4-yl-5H-pyrazolo[3,4-d]pyrimidin-6-yl)ethyl]azetidin-3-yl]oxyphenyl]benzene carbohydroxamic acid] | 1 to 10 | 0.01 to 1 | > 10 |  |  |
| CC(c1nc2c(cnn2C2CCOCC2)c(=O)[nH]1)N1CC(Oc2ccc(N3CCC(C(=O)NO)CC3)cc2)C1 (centres unmarked) [Example 3-05] | > 10 | 0.01 to 1 |  |  |  |
| CC(c1nc2c(cnn2C2CCOCC2)c(=O)[nH]1)N1CC(Oc2ccc(/C=C/C(=O)NO)cc2)C1 (centres unmarked) [Example 3-06] | 0.01 to 1 | < 0.01 |  |  |  |
| CC(c1nc2c(cnn2C2CCOCC2)c(=O)[nH]1)N1CC(OC2CCN(c3ncc(C(=O)NO)cn3)CC2)C1 (centres unmarked) [Example 3-07] | 0.01 to 1 | 0.01 to 1 |  |  |  |
| CC(c1nc2c(cnn2C2CCOCC2)c(=O)[nH]1)N1CC(Oc2ccc(C(=O)NO)cc2)C1 (centres unmarked) [Example 3-13] | 0.01 to 1 | 0.01 to 1 |  | 0.01 to 1 | 1 to 10 |
| CC(c1nc2c(cnn2C2CCOCC2)c(=O)[nH]1)N1CC(Cc2ccc(C(=O)NO)cc2)C1 (centres unmarked) [Example 3-15] | 1 to 10 | 0.01 to 1 |  | 0.01 to 1 | 1 to 10 |
| COc1ccc(C(=O)Nc2c(Cl)cncc2Cl)cc1OC1CCCC1 [Piclamilast, reference compound] |  | > 10 | 1 to 10 |  |  |
